Laboratory results taken from patent US20150284331A1 (priority 2012, published 2015).

Experiments:
[1] = biological target: T1, acetylcholinesterase (Rattus norvegicus, UniProt P37136); experiment: biochemical; assay type: biochemical; conditions: rat cortex enzyme; for acetylcholinesterase inhibitory activity inhibition ratio (%): final concentration 4×10−5 mol/L; for IC50: read-out: acetylcholinesterase inhibitory activity IC50 (nmol)
T1 construct: Acetylcholinesterase: rat cortex; from tissue; host or cells: rat cortex
T1 sequence (P37136 32-614): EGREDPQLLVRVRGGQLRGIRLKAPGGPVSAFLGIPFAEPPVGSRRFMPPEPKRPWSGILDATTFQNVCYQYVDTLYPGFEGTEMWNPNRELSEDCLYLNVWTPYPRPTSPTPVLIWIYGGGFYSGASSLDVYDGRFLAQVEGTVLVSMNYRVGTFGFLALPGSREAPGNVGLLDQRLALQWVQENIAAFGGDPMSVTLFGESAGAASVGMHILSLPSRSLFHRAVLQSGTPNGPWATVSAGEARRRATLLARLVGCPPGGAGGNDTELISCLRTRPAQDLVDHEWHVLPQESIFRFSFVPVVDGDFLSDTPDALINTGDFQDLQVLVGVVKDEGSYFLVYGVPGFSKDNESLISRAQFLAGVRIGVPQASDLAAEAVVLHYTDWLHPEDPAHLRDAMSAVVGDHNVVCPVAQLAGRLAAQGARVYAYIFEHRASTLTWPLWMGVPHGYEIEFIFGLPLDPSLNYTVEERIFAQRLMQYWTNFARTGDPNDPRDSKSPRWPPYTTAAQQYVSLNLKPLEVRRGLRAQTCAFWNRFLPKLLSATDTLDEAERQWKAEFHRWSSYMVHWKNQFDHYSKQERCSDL
Description: (§1) Sample processing: All samples were formulated as 10-2 mol/L solution by using 100% DMSO. 10-2 mol/L solution was used in microdetermination. 1 μL was taken to use in single tube experiment.
(§2) Solvent control: 0.4% DMSO was used in microdetermination. The inhibition ratio of the sample was obtained wherein the effect of solvent was deducted.
Acetylcholinesterase: rat cortex

[2] = biological target: T2, butyrylcholinesterase (Rattus norvegicus, UniProt Q9JKC1); experiment: inhibition of butyrylcholinesterase (rat serum); assay type: biochemical; conditions: rat serum enzyme; final concentration 4×10−5 mol/L
T2 construct: Butyrylcholinesterase: rat serum; from tissue; host or cells: rat serum
Description: as §1, §2
Butyrylcholinesterase: rat serum

T2 sequence (Q9JKC1 24-597): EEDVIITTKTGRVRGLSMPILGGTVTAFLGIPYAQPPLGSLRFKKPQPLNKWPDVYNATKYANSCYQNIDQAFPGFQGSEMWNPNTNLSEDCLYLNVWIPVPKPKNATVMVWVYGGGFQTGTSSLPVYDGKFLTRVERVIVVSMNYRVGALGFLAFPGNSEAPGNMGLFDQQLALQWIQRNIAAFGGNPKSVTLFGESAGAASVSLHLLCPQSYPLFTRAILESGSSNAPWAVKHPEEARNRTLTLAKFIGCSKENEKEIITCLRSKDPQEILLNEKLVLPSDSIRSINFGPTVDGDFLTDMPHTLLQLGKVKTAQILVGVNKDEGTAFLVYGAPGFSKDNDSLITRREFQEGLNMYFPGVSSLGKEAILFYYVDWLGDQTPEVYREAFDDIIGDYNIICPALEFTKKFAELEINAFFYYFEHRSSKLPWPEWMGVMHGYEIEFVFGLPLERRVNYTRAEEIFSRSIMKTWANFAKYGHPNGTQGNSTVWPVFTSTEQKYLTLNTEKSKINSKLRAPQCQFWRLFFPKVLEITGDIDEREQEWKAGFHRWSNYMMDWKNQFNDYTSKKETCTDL

| Compound | acetylcholinesterase inhibitory activity inhibition ratio (%) [1] | IC50 [1] | butyrylcholinesterase inhibitory activity inhibition ratio (%) [2] |
| --- | --- | --- | --- |
| COc1cc2c(cc1OC)C(=O)C(CC1(F)CCN(Cc3ccc(F)cc3)CC1)C2 (centres unmarked) [DC5, 2-((4-fluoro-1-(4-fluorobenzyl)piperidin-4-yl)methyl)-5,6-dimethoxy-2,3-dihydro-1H-inden-1-one] | 82.04% | 2.67 nM | 0.00% |
| COc1cc2c(cc1OC)C(=O)C(CC1(F)CC3CCC(C1)N3Cc1cccc(C)c1)C2 (centres unmarked) [DC69, 2-((3-fluoro-8-(3-methylbenzyl)-8-azabicyclo[3.2.1]octan-3-yl)methyl)-5,6-dimethoxy-2,3-dihydro-1H-inden-1-one] | 97.49% | – | 58.86% |
| COc1cc2c(cc1OC)C(=O)C(CC1(F)CCN(Cc3ccccc3F)C(C(=O)O)C1)C2 (centres unmarked) [DC108, 4-((5,6-dimethoxy-1-oxo-2,3-dihydro-1H-inden-2-yl)methyl)-4-fluoro-1-(2-fluorobenzyl)piperidine-2-carboxylic acid] | 82.49% | 9.96 nM | 71.58% |
| COc1cc2c(cc1OC)C(=O)C(CC1(F)CCN(Cc3ccc(C(F)(F)F)cc3)CC1)C2 (centres unmarked) [DC16, 2-((4-fluoro-1-(4-(trifluoromethyl)benzyl)piperidin-4-yl)methyl)-5,6-dimethoxy-2,3-dihydro-1H-inden-1-one] | 75.25% | – | 0.00% |
| COC(=O)c1ccc(CN2C3CCC2CC(F)(CC2Cc4cc(OC)c(OC)cc4C2=O)C3)cc1 (centres unmarked) [DC50, methyl 4-((3-((5,6-dimethoxy-1-oxo-2,3-dihydro-1H-inden-2-yl)methyl)-3-fluoro-8-azabicyclo[3.2.1]octan-8-yl)methyl)benzoate] | 83.75% | – | 0.00% |
| COc1cc2c(cc1OC)C(=O)C(CC1(F)CCN(Cc3ccccc3C#N)CC1)C2 (centres unmarked) [DC3, 2-((4-((5,6-dimethoxy-1-oxo-2,3-dihydro-1H-inden-2-yl)methyl)-4-fluoropiperidin-1-yl)methyl)benzonitrile] | 80.04% | – | 36.42% |
| COC(=O)C1CC(F)(CC2Cc3cc(OC)c(OC)cc3C2=O)CCN1Cc1ccccc1F (centres unmarked) [DC107, methyl 4-((5,6-dimethoxy-1-oxo-2,3-dihydro-1H-inden-2-yl)methyl)-4-fluoro-1-(2-fluorobenzyl)piperidine-2-carboxylate] | 76.03% | 23 nM | 75.6% |
| COc1cc2c(cc1OC)C(=O)C(CC1(F)CC3CCC(C1)N3Cc1cc(C)cc(C)c1)C2 (centres unmarked) [DC44, 2-((8-(3,5-dimethylbenzyl)-3-fluoro-8-azabicyclo[3.2.1]octan-3-yl)methyl)-5,6-dimethoxy-2,3-dihydro-1H-inden-1-one] | 95.27% | – | 34.15% |
| COc1cc2c(cc1OC)C(=O)C(CC1(F)CCN(Cc3cc(C(F)(F)F)cc(C(F)(F)F)c3)CC1)C2 (centres unmarked) [DC22, 2-((1-(3,5-bis(trifluoromethyl)benzyl)-4-fluoropiperidin-4-yl)methyl)-5,6-dimethoxy-2,3-dihydro-1H-inden-1-one] | 58.49% | – | 4.36% |
| COc1cc2c(cc1OC)C(=O)C(CC1(F)CCN(Cc3cccc(F)c3)CC1)C2.Cl (centres unmarked) [DC38, 2-((4-fluoro-1-(3-fluorobenzyl)piperidin-4-yl)methyl)-5,6-dimethoxy-2,3-dihydro-1H-inden-1-one hydrochloride] | 96.90% | – | 72.57% |
| COc1cc2c(cc1OC)C(=O)C(CC1(F)CCN(Cc3cccc(Br)c3)CC1)C2 (centres unmarked) [DC11, 2-((1-(3-bromobenzyl)-4-fluoropiperidin-4-yl)methyl)-5,6-dimethoxy-2,3-dihydro-1H-inden-1-one] | 84.63% | 4.33 nM | 12.76% |
| COc1cc2c(cc1OC)C(=O)C(CC1(F)CCN(Cc3ccccc3C(F)(F)F)CC1)C2 (centres unmarked) [DC18, 2-((4-fluoro-1-(2-(trifluoromethyl)benzyl)piperidin-4-yl)methyl)-5,6-dimethoxy-2,3-dihydro-1H-inden-1-one] | 93.80% | – | 14.99% |
| COc1cc2c(cc1OC)C(=O)C(CC1(F)CCN(Cc3ccc(C(C)(C)C)cc3)CC1)C2 (centres unmarked) [DC7, 2-((1-(4-(tert-butyl)benzyl)-4-fluoropiperidin-4-yl)methyl)-5,6-dimethoxy-2,3-dihydro-1H-inden-1-one] | 69.06% | – | 8.40% |
| COc1cc2c(cc1OC)C(=O)C(CC1(F)CCN(Cc3ccc([N+](=O)[O-])cc3)CC1)C2 (centres unmarked) [DC1, 2-((4-fluoro-1-(4-nitrobenzyl)piperidin-4-yl)methyl)-5,6-dimethoxy-2,3-dihydro-1H-inden-1-one] | 72.85% | 8780 nM | 46.68% |
| O=C1c2cc(OC(F)F)c(OC(F)F)cc2CC1CC1(F)CCN(Cc2ccccc2F)CC1 (centres unmarked) [DC104, 5,6-bis(difluoromethoxy)-2-((4-fluoro-1-(2-fluorobenzyl)piperidin-4-yl)methyl)-2,3-dihydro-1H-inden-1-one] | 98.02% | 0.76 nM | 71.8% |
| COc1cc2c(cc1OC)C(=O)C(CC1(F)CCN(Cc3cc(F)cc(F)c3)CC1)C2 (centres unmarked) [DC27, 2-((1-(3,5-difluorobenzyl)-4-fluoropiperidin-4-yl)methyl)-5,6-dimethoxy-2,3-dihydro-1H-inden-1-one] | 97.34% | – | 18.07% |
| COc1cc2c(cc1OC)C(=O)C(CC1(F)CCN(Cc3ccc(F)c(F)c3F)CC1)C2 (centres unmarked) [DC12, 2-((4-fluoro-1-(2,3,4-trifluorobenzyl)piperidin-4-yl)methyl)-5,6-dimethoxy-2,3-dihydro-1H-inden-1-one] | 98.08% | – | 38.15% |
| O=C1c2cc(OCC(F)F)c(OCC(F)F)cc2CC1CC1(F)CCN(Cc2ccccc2F)CC1 (centres unmarked) [DC105, 5,6-bis(2,2-difluoroethoxy)-2-((4-fluoro-1-(2-fluorobenzyl)piperidin-4-yl)methyl)-2,3-dihydro-1H-inden-1-one] | 98.14% | 0.99 nM | 61.5% |
| COc1cc2c(cc1OC)C(=O)C(CC1(F)CC3CCC(C1)N3Cc1c(F)c(F)c(F)c(F)c1F)C2 (centres unmarked) [DC68, 2-((3-fluoro-8-((perfluorophenyl)methyl)-8-azabicyclo[3.2.1]octan-3-yl)methyl)-5,6-dimethoxy-2,3-dihydro-1H-inden-1-one] | 93.80% | – | 4.0% |
| COc1cc2c(cc1OC)C(=O)C(CC1(F)CCN(Cc3ccc(OC(F)(F)F)cc3)CC1)C2 (centres unmarked) [DC6, 2-((4-fluoro-1-(4-(trifluoromethoxy)benzyl)piperidin-4-yl)methyl)-5,6-dimethoxy-2,3-dihydro-1H-inden-1-one] | 51.7% | – | 1.24% |
| COc1cc2c(cc1OC)C(=O)C(CC1(F)CCN(CC3CCCCCC3)CC1)C2 (centres unmarked) [DC34, 2-((1-(cycloheptylmethyl)-4-fluoropiperidin-4-yl)methyl)-5,6-dimethoxy-2,3-dihydro-1H-inden-1-one] | 95.57% | – | 68.48% |
| COc1cc2c(cc1OC)C(=O)C(CC1(F)CCN(Cc3ccc(-c4ccccc4)cc3)CC1)C2 (centres unmarked) [DC36, 2-((1-([1,1′-biphenyl]-4-ylmethyl)-4-fluoropiperidin-4-yl)methyl)-5,6-dimethoxy-2,3-dihydro-1H-inden-1-one] | 90.25% | – | 5.18% |
| COc1cc2c(cc1OC)C(=O)C(CC1(F)CCN(Cc3cccc(C(F)(F)F)c3)CC1)C2 (centres unmarked) [DC30, 2-((4-fluoro-1-(3-(trifluoromethyl)benzyl)piperidin-4-yl)methyl)-5,6-dimethoxy-2,3-dihydro-1H-inden-1-one] | 97.49% | – | 5.18% |
| COc1cc2c(cc1OC)C(=O)C(CC1(F)CCN(Cc3ccccc3Br)CC1)C2 (centres unmarked) [DC14, 2-((1-(2-bromobenzyl)-4-fluoropiperidin-4-yl)methyl)-5,6-dimethoxy-2,3-dihydro-1H-inden-1-one] | 85.03% | 4 nM | 54.77% |
